Source: US20250134835A1, “COMPOSITIONS AND METHODS FOR TREATING PATIENTS WITH AMYOTROPHIC LATERAL SCLEROSIS (ALS)” (CuraSen Therapeutics, Inc., priority 2022, published 2025)
Entries after “also recorded” stand apart in the source; their conditions may differ.

Assays:
healthy volunteers [1] = experiment: Heart rate (triplicate ECG) after Compound 03-5 with or without nadolol; type: in vivo, human
Procedure: (§1) Healthy volunteers were enrolled into 2 cohorts in a study to undertake within-subject dose titration of Compound 03-5 and/or nadolol in order to explore doses/dose combinations that mitigate peripheral effects of Compound 03-5, e.g. on heart rate, while preserving possible central effects of Compound 03-5 on cerebral perfusion and pupillary light reflex.
(§2) Eight healthy subjects aged 18-50 years were enrolled into Cohort D1 and received escalating doses of Compound 03-5 (3-12 mg) administered once daily 2 hours follow pre-administration of nadolol (1-40 mg). On all dosing days, study drug(s) were administered orally after an overnight fast of at least 8 hours.
(§3) In Cohort D2, 8 healthy volunteers aged 55-75 years were admitted on Day −1 for a 5-day confinement period at the research facility. During this confinement, subjects received escalating doses of open label Compound 03-5 (1-10 mg) once-daily from Day 1 through Day 3 2 hours after pre-administration of open-label nadolol (3 mg) one each for the 3 dosing days according to the schematic in FIG. 17. Subjects remained in-residency until all study procedures are completed on Day 4.

healthy volunteers [2] = experiment: CANTAB cognition battery, Cohort D2; type: in vivo, human; conditions: Compound 03-5 1, 3 and 10 mg on Days 1, 2, 3 in the presence of 3 mg nadolol
Procedure: as §3
Compound 03-5 dose administration. Compound 03-5 was administered as escalating doses on Day 1 (1 mg), Day 2 (3 mg) and Day 3 (10 mg). CANTAB was conducted twice in all subjects on the day prior to start of dosing (Day −1) to familiarize subjects with the platform, and prior to dosing and approximately 3 hours after Compound 03-5 administration on Days 1, 2, and 3.

[3] = system: healthy volunteers and patients; experiment: Cerebral blood flow after single dose of Compound 03-5; type: in vivo, human; conditions: single dose of Compound 03-5 in the absence or presence of 3 mg nadolol
From the text: Data are plotted as mean (±SEM) percent change in cerebral blood flow from baseline in brain regions of interest for movement (the precentral gyrus) and mood, anhedonia and cognition (hippocampus, thalamus, amygdala).

healthy volunteers [4] = experiment: Blood potassium, glucose and other peripheral effects after Compound 03-5 with or without nadolol; type: in vivo, human
Procedure: as §1, §2, §3

healthy subjects [5] = experiment: Visual verbal learning test (VVLT); type: in vivo, human; conditions: single dose; crossover study
Procedure: Subjects are presented 30 words on a screen, one at a time, for 1 second with a 1-second interval between words over a total of 1 minute. This is repeated in 3 trials. After each trial, subjects are asked to recall as many words as they can. After the third trial, there is a delay of 2.5 hours and subjects are then tested once for delayed recall. […] Since this was a crossover study, everyone who completed Part A was dosed with the 3 agents plus placebo.

patients [6] = experiment: Peripheral effects of clenbuterol with or without nadolol (heart rate, potassium, glucose)
healthy subjects [7] = experiment: Adaptive tracking test; type: in vivo, human; conditions: single dose 160 μg clenbuterol
From the text: Adaptive tracking measures visuomotor coordination and vigilance. In this test, the subject uses a joystick to move a small dot so that it stays within a continuously moving circle on a computer screen (Boland 1984). During the test, the speed of the circle is adjusted in response to the subject's ability to keep the dot in the circle, ensuring that the test is adapted to the individual subject. […] The improvement shown by subjects is in the same range as that seen with subjects treated with the acetylcholinesterase inhibitor donepezil, which is in clinical use for the treatment of mild to moderate AD (Groeneveld 2016).

healthy subjects [8] = experiment: Cerebral perfusion by ASL MRI after single dose of clenbuterol (Example 3); conditions: for cerebral blood flow measured by MRI-ASL: healthy volunteers, single dose (FIG. 2)
[9] = system: patients with neurodegenerative disorders; type: in vivo, human; conditions: 80 μg clenbuterol and 1 mg nadolol once daily for 14 days vs placebo
patients [10] = experiment: Cerebral blood flow by brain imaging after single dose (Example 1); type: in vivo, human
[11] = system: patients with neurodegenerative disorders; experiment: Facial Expression Recognition Task (FERT), crossover study; type: in vivo, human; conditions: clenbuterol co-administered with low-dose nadolol vs placebo
From the text: The Facial Expression Recognition Task (FERT) assesses the recognition of facial emotions. […] Different intensity levels of each emotion are presented, which increases the ambiguity of the facial expression and the sensitivity of the task.

[12] = monotherapy with Compound 03-5 (0.3-6 mg)
[13] = 80 µg clenbuterol on its own, single dose

## CC(C)(C)NC[C@H](O)c1cccc(C#N)n1 [Compound 03-5, (S)-6-(2-(tert-butylamino)-1-hydroxyethyl)picolinonitrile]
Healthy volunteers [1]; Compound 03-5 with pre-administration of 1 mg nadolol
  mean maximum increase in heart rate: 7 beats per minute
Healthy volunteers [1]; [12]
  heart rate change from baseline: dose-dependent increases in heart rate
Healthy volunteers [2]
  cognition (CANTAB), change from within-day pre-dose assessment: improvements in performance in the CANTAB cognition battery
[3]
  cerebral blood flow from baseline (precentral gyrus, hippocampus, thalamus, amygdala): robust, global increases in cerebral blood flow
Healthy volunteers [4]; [12]
  blood potassium concentrations: dose-dependent decreases in blood potassium concentrations

## CC(C)(C)NCC(O)c1cc(Cl)c(N)c(Cl)c1 (centres unmarked) [clenbuterol]
Healthy subjects [5]
  effect on VVLT (number of words recalled correctly): improvements in cognition; also recorded: positive effects
Patients [6]; [13]
  glucose in the blood, change from baseline: increases in glucose in the blood
  potassium in the blood, change from baseline: decreases in potassium in the blood
Patients [6]; 80 g clenbuterol on its own, single dose
  heart rate change from baseline: increases in heart rate
Patients [6]; over the 4 hours after dosing clenbuterol+nadolol (1 mg)
  increases in heart rate: 4.0-6.8 bpm
Healthy subjects [7]
  performance in adaptive tracking (percent time dot kept within moving circle): improved performance in the adaptive tracking task; also recorded: improves cognition; also recorded: performance in adaptive tracking improves
Healthy subjects [8]; 160 μg clenbuterol, hippocampus, thalamus, amygdala, cortex, precentral gyrus
  cerebral perfusion: robust global increase in cerebral perfusion
Healthy subjects [8]; clenbuterol 40 μg
  cerebral perfusion as measured by CBF: minimal increase
Healthy subjects [8]; clenbuterol doses below 30 μg
  cerebral perfusion as measured by CBF: do not produce significant cerebral perfusion increases
Healthy subjects [8]
  cerebral blood flow measured by MRI-ASL: increases in cerebral blood flow
[9]
  number of words correctly recalled, immediate verbal recall: statistically significant increase in the number of words correctly recalled
Patients [10]; single dose clenbuterol 160 μg
  cerebral blood flow (CBF) relative to the baseline: global increases in cerebral blood flow; also recorded: robust global increase in cerebral blood flow; also recorded: robust, global increase in cerebral blood flow
Patients [10]; single dose clenbuterol 160 μg and nadolol 5 mg
  cerebral blood flow (CBF) relative to the baseline: global increases in cerebral blood flow; also recorded: robust global increase in cerebral blood flow
Patients [10]; single dose clenbuterol 30 to 160 μg and/or nadolol 5 mg, tracked 3 days
  cerebral blood flow from the baseline: robust global increase in cerebral blood flow
Patients [10]; single dose clenbuterol ranging from 20 to 160 μg, tracked 3 days
  cerebral blood flow (CBF) relative to the baseline: robust global increase in cerebral blood flow
[11]
  accuracy of correctly identifying happy facial expressions (FERT): statistically significant increase in the accuracy

## CC(C)(C)NCC(O)COc1cccc2c1CC(O)C(O)C2 (centres unmarked) [nadolol]
Healthy volunteers [1]; 3 mg nadolol pre-administered, Cohort D2, Compound 03-5 1-10 mg
  effect of nadolol on peripheral effects of Compound 03-5 (heart rate, glucose, potassium): inhibited; also recorded: similarly blocked
Healthy volunteers [1]; Cohort D1, nadolol 1 mg up to 40 mg, Compound 03-5 3-12 mg
  effect of nadolol on peripheral effects of Compound 03-5 (heart rate, glucose, potassium, tachycardia, tremor, palpitations): blocked
Healthy volunteers [1]; pre-administration of 1 mg nadolol, Compound 03-5 up to 6 mg orally
  effect of nadolol on heart rate increase and other peripheral effects of Compound 03-5: substantially attenuated
Healthy volunteers [4]; 3 mg nadolol, cohort D2
  effect of nadolol on Compound 03-5 induced decrease in blood potassium: inhibited
Healthy volunteers [4]; pre-administration of 1 mg nadolol
  effect of nadolol on effects of Compound 03-5 on blood glucose and potassium, tachycardia, tremor and palpitations: Concomitant attenuation

## CC(C)NCC(O)COc1cccc2[nH]ccc12 (centres unmarked) [pindolol]
Healthy subjects [5]
  effect on VVLT (number of words recalled correctly): detrimental effect
Healthy subjects [8]
  cerebral blood flow measured by MRI-ASL: lack of increase in cerebral blood flow

## CC(C)(C)NCC(O)c1ccc(O)c(CO)c1 (centres unmarked) [salbutamol]
Healthy subjects [5]
  effect on VVLT (number of words recalled correctly): improvements in cognition; also recorded: positive effects
